Here are results for 13 molecules from publication PMC10385743.

Like-named read-outs stand apart in the source and are kept apart here.

The test system of data set [1] is HCV GT 3a (strain S52) subgenomic replicon. As to the kind of experiment: microbe, parasite or virus in culture. In kind it is cell-based, hepatitis C virus. The settings on record: Hepatitis C virus, GT3A, 72 h, luciferase, mean ± SD, read-out: Huh7.5-3a(S52) (HCV Replicon 3a) EC50.
The subject of data set [2] is HCV GT 4a (strain ED43) subgenomic replicon. As to the kind of experiment: microbe, parasite or virus in culture. In kind it is cell-based, hepatitis C virus. As to conditions: Hepatitis C virus, GT4A, 72 h; luciferase; mean ± SD; read-out: Huh7.5-4a(ED43) (HCV Replicon 4a) EC50. (Replicon systems follow genome replication, usually without infectious particles.)
In data set [3] the test system is YFV (strain 17D) subgenomic replicon. As to the kind of experiment: microbe, parasite or virus in culture. In kind it is cell-based, yellow fever virus. The settings on record: Yellow fever virus, 72 h, read-out: Huh7-YF (YFV Replicon 17D) EC50.
For data set [4], the system named is DENV serotype 2 (strain 16681) subgenomic replicon. The data set can be described thus: microbe, parasite or virus in culture. In kind it is cell-based, dengue virus. The settings on record: Dengue virus, DENV2; 72 h; luciferase; mean ± SD; read-out: Huh7-D2 (DENV-2 Replicon) EC50.
Data set [5] concerns bloodstream form T. b. brucei (strain 221). As to conditions: for SI (CC50 for L6 cells / EC50 for T. brucei): selectivity index; for increase in activity against T. brucei relative to parent compound: 38, 40, 41 versus parent 36, 42 versus parent 37; for EC50: read-out: T. brucei EC50, cultured bloodstream form, mean of triplicate experiments ± SEM.
Data set [6] shares this test system. The data set can be described thus: microbe, parasite or virus in culture. The settings on record: Trypanosoma brucei, mean of triplicate experiments ± SEM; for EC50: read-out: T. brucei EC50, cultured bloodstream form; for EC90: read-out: T. brucei EC90, cultured bloodstream form.
Data set [7] concerns T. cruzi (CL Brener strain) epimastigotes. The data set can be described thus: microbe, parasite or virus in culture. As to conditions: Trypanosoma cruzi; for EC50: read-out: T. cruzi EC50; for EC90: read-out: T. cruzi EC90.
Data set [8] in a line: Cytotoxicity against cultured L6 cells (resazurin). As to conditions: rat, L6 rat skeletal myoblast cells, L6 Cells CC50, mean of triplicate experiments ± SEM. (Resazurin is reduced to fluorescent resorufin, in cell work by metabolically active cells.)
Data set [9] in a line: Cytotoxicity in Huh5-2 replicon cells (intracellular ATP levels). The settings on record: human.
Data set [10] relates to rat skeletal myoblast L6 cells. The data set can be described thus: Cytotoxicity against cultured L6 cells (resazurin). As to conditions: read-out: L6 Cells CC50; mean of triplicate experiments ± SEM.
In data set [11] the test system is T. cruzi (CL Brener strain) epimastigotes. As to conditions: selectivity index.
The subject of data set [12] is bloodstream form T. b. brucei (strain 221). The settings on record: cited from earlier work.
A further data set relates to HCV. The arrangement: method as in doi:10.1039/C5MD00439J. The settings on record: read-out: Antiviral activity (Hepatitis C) EC50; cited from earlier work.
The mark [13] stands for this setting: earlier lead compounds, read-out: T. brucei EC50.

In the case of `O=C(CN1C(=O)NC2(CCC(c3ccccc3)CC2)C1=O)NO` (centres unmarked) [Compound 36, N-Hydroxy-2-(2,4-dioxo-8-phenyl-1,3-diazaspiro [4.5]decan-3-yl) acetamide], the EC50 is 0.75 ± 0.13 µM in data set [1]; 390 ± 10 nM in data set [2]; more than 10 µM in data set [3]; 4.64 ± 0.11 µM in data set [4]; 880 ± 100 nM in data set [6]; more than 30 µM in data set [7]. Besides, in data set [5], the “SI (CC50 for L6 cells / EC50 for T. brucei)” value is on record as 70. Further, in data set [6], the concentration for an effect of 90% (EC90) came out at 1180 ± 40 nM. In data set [8], it took 60.8 ± 8.2 µM to reach half-maximal cytotoxicity (CC50 at 6 days). This molecule registered a CC50 at 72 h in data set [9] of 75.4 ± 8.46 µM.
Take `O=C(CN1C(=O)NC2(CCCCC2c2ccccc2)C1=O)NO` (centres unmarked) [Compound 37, N-Hydroxy-2-(2,4-dioxo-6-phenyl-1,3-diazaspiro [4.5]decan-3-yl) acetamide]: the concentration giving a half-maximal response (EC50) was more than 10 µM in data set [1]; more than 10000 nM in data set [2]; more than 10 µM in [3]; more than 10 µM in [4]; 4410 ± 220 nM in [6]; more than 30 µM in [7]. The “T. brucei EC50 fold higher than that of 36” value in data set [5] (2-phenyl versus 4-phenyl cyclohexane ring) was found to be 5 fold. For the same molecule, in data set [5], the “SI (CC50 for L6 cells / EC50 for T. brucei)” value is given as 55. In addition, the EC90 in data set [6] is 5920 ± 90 nM. In addition, the CC50 at 6 days in data set [8] was more than 200 µM. The 50% cytotoxic concentration (CC50) in data set [10] worked out at 246 ± 3 µM. In [9], this molecule gave a CC50 at 72 h of more than 10 µM.
Consider `CN1C(=O)N(CC(=O)NO)C(=O)C12CCC(c1ccccc1)CC2` (centres unmarked) [Compound 38, N-Hydroxy-2-(1-methyl-2,4-dioxo-8-phenyl-1,3-diazaspiro [4.5]decan-3-yl)acetamide], for which the EC50 in data set [1] was 0.63 ± 0.01 µM; in [2], 220 nM; in [3] it was more than 10 µM; in [4] it was 10.2 ± 0.18 µM; in data set [6] it was 100 ± 10 nM; in [7], 6.25 ± 0.24 µM. In data set [5], the “increase in activity against T. brucei relative to parent compound” value came out at 9 fold. In [5], the “SI (CC50 for L6 cells / EC50 for T. brucei)” value is on record as 220. For the same molecule, the “SI (CC50 for L6 cells / EC50 for T. cruzi)” value in data set [11] is 4. In addition, the concentration for an effect of 90% (EC90) in data set [6] turned out to be 140 ± 10 nM; in data set [7], 13.3 ± 0.3 µM. The same molecule gave a CC50 at 6 days in [8] of 21.7 ± 3.9 µM. Also, the 50% cytotoxic concentration (CC50) at 72 h in [9] worked out at 43.1 ± 2.11 µM.
`CN1C(=O)N(CC(=O)NO)C(=O)C12CCCCC2c1ccccc1` (centres unmarked) [Compound 39, N-Hydroxy-2-(1-methyl-2,4-dioxo-6-phenyl-1,3-diazaspiro [4.5]decan-3-yl)acetamide]: the EC50 in [1] was more than 10 µM; in data set [2] it was more than 10000 nM; in data set [3] it was more than 10 µM; in data set [4], 4.62 ± 0.39 µM; in [6] it was 1460 ± 60 nM; in data set [7], more than 30 µM. Also, the “SI (CC50 for L6 cells / EC50 for T. brucei)” value in data set [5] turned out to be 150. Also, the EC90 in data set [6] was found to be 1750 ± 20 nM. Also, the midpoint of cytotoxicity in data set [8], the CC50 at 6 days, lay at 217 ± 6 µM. The same molecule gave a CC50 at 72 h in [9] of more than 10 µM.
`CCN1C(=O)N(CC(=O)NO)C(=O)C12CCC(c1ccccc1)CC2` (centres unmarked) [Compound 40, N-Hydroxy-2-(1-ethyl-2,4-dioxo-8-phenyl-1,3-diazaspiro [4.5]decan-3-yl)acetamide]: the concentration giving a half-maximal response (EC50) in data set [1] was found to be 0.52 ± 0.08 µM; in data set [2], 310 ± 130 nM; in data set [3], 6.67 ± 0.05 µM; in data set [4], 0.68 ± 0.03 µM; in data set [6], 29 ± 1 nM; in data set [7], 1.12 ± 0.03 µM. Moreover, the “increase in activity against T. brucei relative to parent compound” value in [5] was determined as 30 fold. For the same molecule, the “SI (CC50 for L6 cells / EC50 for T. brucei)” value in data set [5] is recorded as 1870. For the same molecule, in data set [11], the “SI (CC50 for L6 cells / EC50 for T. cruzi)” value worked out at 48. Further, the concentration for an effect of 90% (EC90) came out at 55 ± 3 nM in data set [6] and 1.86 ± 0.04 µM in data set [7]. In data set [8], the midpoint of cytotoxicity, the CC50 at 6 days, lay at 54.3 ± 5.9 µM. This molecule displayed a cytotoxic concentration (CC50) at 72 h in data set [9] of 10.6 ± 0.12 µM.
Take `O=C(CN1C(=O)N(Cc2ccccc2)C2(CCC(c3ccccc3)CC2)C1=O)NO` (centres unmarked) [Compound 41, N-Hydroxy-2-(1-benzyl-2,4-dioxo-8-phenyl-1,3-diazaspiro [4.5]decan-3-yl)acetamide]: the concentration giving a half-maximal response (EC50) is more than 10 µM in data set [1]; more than 10000 nM in data set [2]; more than 10 µM in [3]; more than 10 µM in data set [4]; 9 ± 1 nM in data set [6]; 0.34 ± 0.02 µM in data set [7]. In data set [5], the “increase in activity against T. brucei relative to parent compound” value was 100 fold. Moreover, the “SI (CC50 for L6 cells / EC50 for T. brucei)” value in data set [5] is listed as 440. Moreover, in data set [11], the “SI (CC50 for L6 cells / EC50 for T. cruzi)” value is 12. For the same molecule, the values for the 90% effect concentration (EC90) in data set [6] and in [7] were 11 ± 1 nM and 0.74 ± 0.05 µM, respectively. In data set [8], this molecule showed a CC50 at 6 days of 3.98 ± 0.32 µM. The 50% cytotoxic concentration (CC50) at 72 h in [9] was more than 10 µM.
For the molecule `O=C(CN1C(=O)N(Cc2ccccc2)C2(CCCCC2c2ccccc2)C1=O)NO` (centres unmarked) [Compound 42, N-Hydroxy-2-(1-benzyl-2,4-dioxo-6-phenyl-1,3-diazaspiro [4.5]decan-3-yl)acetamide], the EC50 in data set [1] was more than 10 µM; in data set [2] it was 450 ± 20 nM; in data set [3] it was 4.68 ± 0.23 µM; in [4], 1.37 ± 0.08 µM; in data set [5], 191 ± 6 nM; in data set [6], 190 ± 10 nM. Moreover, the EC50 in [7] is 1.95 ± 0.05 µM. In addition, the “increase in activity against T. brucei relative to parent compound” value in [5] amounted to 23 fold. Further, in [5], the “SI (CC50 for L6 cells / EC50 for T. brucei)” value amounted to 62. Besides, the “SI (CC50 for L6 cells / EC50 for T. cruzi)” value in data set [11] was 6. The values for the EC90 in [6] and in [7] were 237 ± 3 nM and 3.12 ± 0.12 µM, respectively. Besides, half-maximal cytotoxicity in data set [8] (CC50 at 6 days) was put at 11.9 ± 0.7 µM. Also, the 50% cytotoxic concentration (CC50) at 72 h in data set [9] stood at 9.37 ± 0.182 µM.
As to `CC(C(=O)NO)N1C(=O)NC2(CCC(c3ccccc3)CC2)C1=O` (centres unmarked) [Compound 49, N-(Hydroxy)-2-(2,4-dioxo-8-phenyl-1,3-diazaspiro [4.5]decan-3-yl)propanamide], the EC50 is more than 10 µM in data set [1]; more than 10000 nM in [2]; 7.98 ± 0.18 µM in data set [3]; more than 10 µM in [4]; 876 ± 51 nM in data set [5]; 880 nM in [6]. Also, the concentration for a half-maximal effect (EC50) in data set [7] was more than 30 µM. Also, the “SI (CC50 for L6 cells / EC50 for T. brucei)” value in data set [5] was found to be 270. The EC90 in [6] came out at 1420 ± 190 nM. Besides, in data set [8], the CC50 at 6 days was more than 200 µM. Moreover, the CC50 in data set [10] was 233 ± 33 µM. In data set [9], this molecule displayed a CC50 at 72 h of more than 10 µM.
`CC(C(=O)NO)N1C(=O)N(C)C2(CCC(c3ccccc3)CC2)C1=O` (centres unmarked) [Compound 53, N-(hydroxy)-2-(1-methyl-2,4-dioxo-8-phenyl-1,3-diazaspiro [4.5]decan-3-yl)propanamide]: the EC50 in data set [1] was more than 10 µM; in [2], 280 ± 20 nM; in data set [3], more than 10 µM; in data set [4], 2.45 ± 0.22 µM; in data set [6], 154 ± 9 nM; in data set [7], 8.5 ± 0.23 µM. Besides, in data set [5], the “SI (CC50 for L6 cells / EC50 for T. brucei)” value is given as 590. Moreover, in data set [11], the “SI (CC50 for L6 cells / EC50 for T. cruzi)” value came out at 11. For the same molecule, the concentration for an effect of 90% (EC90) turned out to be 281 ± 6 nM in data set [6] and 11.9 ± 0.5 µM in data set [7]. The molecule further registered a half-maximal cytotoxic concentration (CC50) at 6 days in data set [8] of 90.5 ± 7.3 µM. This molecule also displayed a cytotoxic concentration (CC50) at 72 h in data set [9] of 100 ± 3.57 µM.
Consider `O=C(CN1C(=O)NC2(CCc3ccccc32)C1=O)NO` (centres unmarked) [III], for which the EC50 in data set [12] (setting [13]) is 440 ± 80 nM.
Regarding `O=C(CN1C(=O)CNC2(CCCCCC2)C1=O)NO` [II], the half-maximal effective concentration (EC50) in [12] (read-out: Trypanocidal activity (T. brucei) EC50) was 1870 ± 80 nM.
With `O=C(CN1C(=O)NC2(CCCCc3ccccc32)C1=O)NO` (centres unmarked) [IV], the EC50 in data set [12] (setting [13]) is 400 ± 40 nM.
Take `O=C1Cn2c(cc3ccccc32)C(=O)N1O` [I]: the EC50 in the data set on HCV is 126 ± 14.2 µM.

The term EC50 denotes the concentration at which the effect is half-maximal. The EC90 is the concentration needed for an effect of 90%. Usually CC50 stands for the concentration that lowers cell viability or growth by half.
